Tested on: participants with migraine
Test: Safety: serious adverse events and adverse events of special interest in the 3×3 factorial trial
[1] = Anytime between Week 0 to Week 12, % of participants
[2] = Anytime between Week 0 to Week 12, n/N participants
[3] = Randomization, % of participants
[4] = Randomization, n/N participants

Text: Tolerability: • a. Difference between groups in potentially related side-effects (dizziness, blurred vision, syncope/collapse/fall, ankle edema, skin rash, itching, gout, hyperkalemia, hypokalemia, hyponatremia, myalgia, insomnia, nightmares, rebound hypertension) • b. Difference between groups in participant withdrawals from treatment • 2. Safety: Percentage with any severe adverse event (SAE) • 3.
All participants reported SAEs and adverse events of special interest (AESI) from the time of informed consent until the end of the follow-up period and reported in the case report. AESIs included: • Dizziness • Hypotension • Pedal Edema • Headache • Muscle cramps • Bradycardia • Flushing • Hypersensitivity reactions (skin rashes, itching) • Gastrointestinal complaints • Myalgia • Syncope/Collapse/Fall • Gout • Insomnia • Nightmares • Rebound hypertension • Chest tightness/pain • Tremor/shaking • Irregular heartbeat/tachycardia Statistical Methods Statistical & Analytical Plans

## CC(C)NCC(O)COc1cccc2ccccc12 (stereo not shown) [Propranolol, propranolol]
12 weeks
  Subjects with any serious adverse event (SAE) in 12 weeks (n/N): 0/10
  Subjects with any serious adverse event (SAE) in 12 weeks (percent): 0.0%
[1]
  Any SAEs: (0.0%)
  Bradycardia: (10.0%)
  Falls: (0.0%)
  Flushing: (0.0%)
  Gastrointestinal complaints: (30.0%)
  Gout: (0.0%)
  Headache: (90.0%)
  Insomnia: (40.0%)
  Muscle cramps: (30.0%)
  Myalgia: (20.0%)
  Nightmares: (10.0%)
  Pedal edema: (0.0%)
  Syncope: (10.0%)
[2]
  Any SAEs: 0/10
  Bradycardia: 1/10
  Falls: 0/10
  Flushing: 0/10
  Gastrointestinal complaints: 3/10
  Gout: 0/10
  Headache: 9/10
  Insomnia: 4/10
  Muscle cramps: 3/10
  Myalgia: 2/10
  Nightmares: 1/10
  Pedal edema: 0/10
  Syncope: 1/10
[3]
  Any SAEs since the last visit?: (0.0%)
  Bradycardia: (0.0%)
  Falls: (0.0%)
  Flushing: (10.0%)
  Gastrointestinal complaints: (0.0%)
  Gout: (0.0%)
  Headache: (100.0%)
  Insomnia: (0.0%)
  Muscle cramps: (0.0%)
  Myalgia: (0.0%)
  Nightmares: (0.0%)
  Pedal edema: (0.0%)
  Syncope: (0.0%)
[4]
  Any SAEs since the last visit?: 0/10
  Bradycardia: 0/10
  Falls: 0/10
  Flushing: 1/10
  Gastrointestinal complaints: 0/10
  Gout: 0/10
  Headache: 10/10
  Insomnia: 0/10
  Muscle cramps: 0/10
  Myalgia: 0/10
  Nightmares: 0/10
  Pedal edema: 0/10
  Syncope: 0/10
Week 4, % of participants
  Any SAEs since the last visit?: (0.0%)
  Bradycardia: (0.0%)
  Falls: (0.0%)
  Flushing: (0.0%)
  Gastrointestinal complaints: (20.0%)
  Gout: (0.0%)
  Headache: (90.0%)
  Insomnia: (20.0%)
  Muscle cramps: (10.0%)
  Myalgia: (10.0%)
  Nightmares: (0.0%)
  Pedal edema: (0.0%)
  Syncope: (0.0%)
Week 4, n/N participants
  Any SAEs since the last visit?: 0/10
  Bradycardia: 0/10
  Falls: 0/10
  Flushing: 0/10
  Gastrointestinal complaints: 2/10
  Gout: 0/10
  Headache: 9/10
  Insomnia: 2/10
  Muscle cramps: 1/10
  Myalgia: 1/10
  Nightmares: 0/10
  Pedal edema: 0/10
  Syncope: 0/10
Week 8, % of participants
  Any SAEs since the last visit?: (0.0%)
  Bradycardia: (0.0%)
  Falls: (0.0%)
  Flushing: (0.0%)
  Gastrointestinal complaints: (0.0%)
  Gout: (0.0%)
  Headache: (80.0%)
  Insomnia: (30.0%)
  Muscle cramps: (0.0%)
  Myalgia: (10.0%)
  Nightmares: (0.0%)
  Pedal edema: (0.0%)
  Syncope: (0.0%)
Week 8, n/N participants
  Any SAEs since the last visit?: 0/10
  Bradycardia: 0/10
  Falls: 0/10
  Flushing: 0/10
  Gastrointestinal complaints: 0/10
  Gout: 0/10
  Headache: 8/10
  Insomnia: 3/10
  Muscle cramps: 0/10
  Myalgia: 1/10
  Nightmares: 0/10
  Pedal edema: 0/10
  Syncope: 0/10
Week 12, % of participants
  Any SAEs since the last visit?: (0.0%)
  Bradycardia: (10.0%)
  Falls: (0.0%)
  Flushing: (0.0%)
  Gastrointestinal complaints: (10.0%)
  Gout: (0.0%)
  Headache: (80.0%)
  Insomnia: (20.0%)
  Muscle cramps: (20.0%)
  Myalgia: (0.0%)
  Nightmares: (10.0%)
  Pedal edema: (0.0%)
  Syncope: (10.0%)
Week 12, n/N participants
  Any SAEs since the last visit?: 0/10
  Bradycardia: 1/10
  Falls: 0/10
  Flushing: 0/10
  Gastrointestinal complaints: 1/10
  Gout: 0/10
  Headache: 8/10
  Insomnia: 2/10
  Muscle cramps: 2/10
  Myalgia: 0/10
  Nightmares: 1/10
  Pedal edema: 0/10
  Syncope: 1/10
Week 13, % of participants
  Any SAEs since the last visit?: (0.0%)
  Bradycardia: (0.0%)
  Falls: (0.0%)
  Flushing: (0.0%)
  Gastrointestinal complaints: (20.0%)
  Gout: (0.0%)
  Headache: (90.0%)
  Insomnia: (0.0%)
  Muscle cramps: (20.0%)
  Myalgia: (20.0%)
  Nightmares: (0.0%)
  Pedal edema: (10.0%)
  Rebound hypertension: (0.0%)
  Syncope: (0.0%)
Week 13, n/N participants
  Any SAEs since the last visit?: 0/10
  Bradycardia: 0/10
  Falls: 0/10
  Flushing: 0/10
  Gastrointestinal complaints: 2/10
  Gout: 0/10
  Headache: 9/10
  Insomnia: 0/10
  Muscle cramps: 2/10
  Myalgia: 2/10
  Nightmares: 0/10
  Pedal edema: 1/10
  Rebound hypertension: 0/10
  Syncope: 0/10
Week 16, % of participants
  Any SAEs since the last visit?: (0.0%)
  Bradycardia: (0.0%)
  Falls: (0.0%)
  Flushing: (0.0%)
  Gastrointestinal complaints: (0.0%)
  Gout: (0.0%)
  Headache: (100.0%)
  Insomnia: (0.0%)
  Irregular heartbeat/tachycardia: (10.0%)
  Muscle cramps: (10.0%)
  Myalgia: (0.0%)
  Nightmares: (0.0%)
  Pedal edema: (0.0%)
  Rebound hypertension: (20.0%)
  Syncope: (0.0%)
Week 16, n/N participants
  Any SAEs since the last visit?: 0/10
  Bradycardia: 0/10
  Falls: 0/10
  Flushing: 0/10
  Gastrointestinal complaints: 0/10
  Gout: 0/10
  Headache: 10/10
  Insomnia: 0/10
  Irregular heartbeat/tachycardia: 1/10
  Muscle cramps: 1/10
  Myalgia: 0/10
  Nightmares: 0/10
  Pedal edema: 0/10
  Rebound hypertension: 2/10
  Syncope: 0/10

Reference: patent US12661345B2, “Compositions for the treatment of hypertension” (The George Institute for Global Health, priority 2017, dated 2026)
